According to patent US12258321B1 (University of Jeddah, priority 2024, dated 2025):

Assays:
MCF-7 cells = test: MTT cytotoxicity test on MCF-7 breast cancer cells; assay type: cell-based, human; conditions: for IC50: Homo sapiens, MCF7, 24 h, read-out: IC50, cytotoxic activity against MCF7 breast cancer cells
Procedure: The MCF-7 breast cancer cell lines were purchased from VACSERA Tissue Culture Unit (Giza, Egypt). MCF-7 cells were cultured in RPMI medium supplemented with 2 mM glutamine and 10% fetal bovine serum. Both cell cultures included […] streptomycin and 100 units/ml penicillin and were kept in a humidified atmosphere with 5% CO2 at 37° C.
All experiments were performed in triplicate. Data were given as mean±SD.

MCL-1 [1] = test: Western blot of MCL-1 expression in MCF7 cells; assay type: cell-based, human; conditions: 24 hours, vs untreated
Procedure: (§1) MCF-7 cells were exposed to compounds Comp-1 and Comp-6 for a period of 24 h, after which western blot analysis was conducted using a previously established protocol^21. To assess the release of cytochrome c, cytosolic and mitochondrial fractions were prepared in accordance with the methods outlined by Kawiak et al^21. Specific primary antibodies were utilized viz; anti-β-actin (1:1,000) (Cell Signaling, Danvers, MA, USA), anti-Bcl-2, anti-Bax, and anti-Mcl-1 (1:250) (Santa Cruz, Heidelberg, Germany), anti-ERK1/2, anti-MEK1/2, anti-p-ERK1/2, and anti-p-MEK1/2 (1:1,000) (Cell Signaling), and anti-cytochrome c (1:5,000) (Abcam, UK), and membranes were subjected to an overnight incubation with these antibodies at 4° C. This was followed by a 1 h incubation with HRP-conjugated secondary antibodies (1:2000) (Cell Signaling). The levels of protein were then determined using chemiluminescence (ChemiDoc; Bio-Rad, Waltham, MA, USA) with an HRP substrate (Thermo Scientific, MA, USA).
(§2) The cytotoxic mechanisms of the exemplary compounds Comp-1 and Comp-6 were investigated. Given that apoptosis is a common mechanism of action for many cancer therapies, we analyzed the levels of apoptotic markers BAX, BCL-2 and MCL-1 after treating MCF7 cells with Comp-1 and Comp-6 for 24 hours. Western blot analysis was performed on cell lysates and compared to untreated cell lysates.

BAX = test: Western blot of BAX level in MCF7 cells; assay type: cell-based, human; conditions: 24 hours
Procedure: as §1, §2

MCL-1 [2] = biological target: T1, MCL-1 (Homo sapiens, UniProt Q07820); test: MCL-1 inhibition by TR-FRET assay (cell-free); assay type: binding; conditions: read-out: IC50 against MCL-1
T1 construct: purchased BPS Bioscience
T1 sequence (Q07820 whole entry): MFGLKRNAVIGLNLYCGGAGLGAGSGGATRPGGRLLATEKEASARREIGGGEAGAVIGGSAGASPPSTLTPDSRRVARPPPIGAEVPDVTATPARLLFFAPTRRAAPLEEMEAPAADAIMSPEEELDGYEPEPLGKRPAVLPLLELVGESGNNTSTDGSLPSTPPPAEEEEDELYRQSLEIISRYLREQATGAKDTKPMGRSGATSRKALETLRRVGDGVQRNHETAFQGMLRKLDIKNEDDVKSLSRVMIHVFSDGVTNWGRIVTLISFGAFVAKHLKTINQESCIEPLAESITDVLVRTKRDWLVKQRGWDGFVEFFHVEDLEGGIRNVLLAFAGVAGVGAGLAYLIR
Procedure: (§3) The effectiveness of inhibiting the MCL-1 and BCL-2 proteins was evaluated using specific assay kits (BPS Bioscience, Sandiego, CA) and corresponding ligands for each protein. […] Measurements were taken of Tb-donor emission at 620 nm followed by dye-acceptor emission at 665 nm, and data analysis was performed using the TR-FRET ratio (665 nm emission/620 nm emission). The FRET value from the positive control was considered as full activity (100%) and the FRET value from the negative control was considered as zero percent activity. Then, % inhibitory activity of test compounds was calculated by the equation: % Activity=FRETS−FRETneg/FRETP−FRETneg×100%
(§4) Where FRETS, FRETneg, and FRETp are sample FRET, negative control FRET, and positive control FRET, respectively. The IC50 values of the test compounds were calculated by nonlinear regression analysis on GraphPad Prism 5 (GraphPad Inc., USA).

p-MEK1/2 = test: Western blot of p-MEK1/2 in EGF-stimulated MCF7 cells; assay type: cell-based, human; conditions: MCF7 cells stimulated with EGF for 30 minutes
Procedure: as §1
(§5) To investigate the impact of exemplary compounds on the cancer-promoting MAPK pathway in MCF7 breast cancer cells, we stimulated the cells with epidermal growth factor (EGF) for 30 minutes to induce p-ERK1/2 and p-MEK1/2 protein expression.

BCL-2 [3] = test: Western blot of BCL-2 expression in MCF7 cells; assay type: cell-based, human; conditions: 24 hours, vs untreated
Procedure: as §1, §2

BCL-2 [4] = biological target: T2, BCL-2 (Homo sapiens, UniProt P10415); test: BCL-2 inhibition by TR-FRET assay (cell-free); assay type: binding; conditions: read-out: IC50 against BCL-2
T2 construct: purchased BPS Bioscience
T2 sequence (P10415 whole entry): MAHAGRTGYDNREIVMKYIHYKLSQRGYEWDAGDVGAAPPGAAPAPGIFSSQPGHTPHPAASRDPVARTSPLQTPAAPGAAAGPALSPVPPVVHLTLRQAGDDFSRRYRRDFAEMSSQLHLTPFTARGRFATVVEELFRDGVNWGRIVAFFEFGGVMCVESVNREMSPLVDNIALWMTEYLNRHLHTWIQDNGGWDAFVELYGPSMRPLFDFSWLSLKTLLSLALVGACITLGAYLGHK
Procedure: as §3, §4

p-ERK1/2 = test: Western blot of p-ERK1/2 in EGF-stimulated MCF7 cells; assay type: cell-based, human; conditions: MCF7 cells stimulated with EGF for 30 minutes
Procedure: as §1, §5

O=C(Cc1ccc(-n2cc(CO)nn2)cc1)NCc1ccccc1 [Comp-1, N-benzyl-2-(4-(4-(hydroxymethyl)-1H-1,2,3-triazol-1-yl)phenyl)acetamide]
IC50 (MCF-7 cells): 1100 nM | potency relative to the reference drug Staurosporine (fold higher) (MCF-7 cells; MCF7 cytotoxicity IC50 ratio): approximately 5 fold | reduction of MCL-1 expression (MCL-1 [1]): 65.4% | BAX increase compared to untreated cells (Control) (BAX): more than five-fold | IC50 (MCL-1 [2]): 365 nM | reduction of p-MEK1/2 signal (p-MEK1/2): 65.3% | reduction of BCL-2 expression (BCL-2 [3]): 65.3% | IC50 (BCL-2 [4]): 507 nM | reduction of p-ERK1/2 signal (p-ERK1/2): 46.1%

O=C(Cc1ccc(-n2cc(COCc3ccccc3)nn2)cc1)NCc1ccccc1 [Comp-5, N-benzyl-2-(4-(4-((benzyloxy)methyl)-1H-1,2,3-triazol-1-yl)phenyl)acetamide]
IC50 (MCF-7 cells): 3200 nM

O=C(Cc1ccc(-n2cc(COc3cccc4ccccc34)nn2)cc1)NCc1ccccc1
IC50 (MCF-7 cells): 1880 nM | reduction of MCL-1 expression (MCL-1 [1]): 43.7% | BAX increase compared to untreated cells (Control) (BAX): nine-fold | IC50 (MCL-1 [2]): 756 nM | reduction of p-MEK1/2 signal (p-MEK1/2): 55.9% | reduction of BCL-2 expression (BCL-2 [3]): 55.9% | IC50 (BCL-2 [4]): 1920 nM | reduction of p-ERK1/2 signal (p-ERK1/2): 50.7%
